Test [1] concerns the target PCSK9 (Homo sapiens, UniProt Q8NBP7). Description: PCSK9/EGF(A) TR-FRET binding assay. The conditions noted are these: TR-FRET, read-out: PCSK9/EGF(A) IC50.
The target of test [2] is T1, PCSK9Δhelix (Homo sapiens, UniProt Q8NBP7).
T1 construct: Human PCSK9 construct M1-Q692 with an engineered TEV site (residue deletion Y166, R167); made in house; host or cells: CHO
Description: PCSK9Δhelix/Ab20 TR-FRET binding assay. The conditions noted are these: for IC50: TR-FRET, read-out: PCSK9Δhelix/Ab20 IC50. In general terms: TR-FRET usually uses a lanthanide donor and a delayed reading to cut background.

The subject of test [3] is His-EGF(A)-Fc. As to the kind of experiment: His-EGF(A)-Fc TR-FRET counterscreen.
Where [4] appears, read: Table 8D, disulfide-cyclized extension peptides.
Setting [5] is: TR-FRET counterscreen, Table 8D, * = some inhibition at highest concentrations, not sufficient to fit an IC50.
Setting [6] is: TR-FRET counterscreen, Table 8E, additional compounds.

Like-named read-outs stand apart in the source and are kept apart here. Bridge positions count the residues as written; N and C are the ends. Square brackets hold non-standard residues; d marks the D form. Peptide text beside a SMILES is read from it. * marks the point of attachment. hArg = N=C(N)NCCCC[C@H](N)C(=O)O; Pentanoyl = CCCCC(=O)*

Sequence of PCSK9 (Q8NBP7 153-692): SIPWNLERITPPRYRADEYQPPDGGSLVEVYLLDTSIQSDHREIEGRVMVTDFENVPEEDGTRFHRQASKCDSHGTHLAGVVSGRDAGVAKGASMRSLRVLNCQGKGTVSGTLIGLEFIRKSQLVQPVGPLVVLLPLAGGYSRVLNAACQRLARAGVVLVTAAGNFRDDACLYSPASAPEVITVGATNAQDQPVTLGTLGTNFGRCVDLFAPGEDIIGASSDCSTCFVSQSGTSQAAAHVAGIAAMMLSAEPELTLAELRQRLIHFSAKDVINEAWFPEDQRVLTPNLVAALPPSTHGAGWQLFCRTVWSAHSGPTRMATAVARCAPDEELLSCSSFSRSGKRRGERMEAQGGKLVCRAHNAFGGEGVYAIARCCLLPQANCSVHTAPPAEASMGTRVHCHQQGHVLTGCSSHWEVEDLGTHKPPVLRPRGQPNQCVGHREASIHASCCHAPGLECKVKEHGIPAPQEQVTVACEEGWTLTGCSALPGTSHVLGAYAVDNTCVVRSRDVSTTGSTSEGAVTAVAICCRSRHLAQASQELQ
Sequence of PCSK9 (Q8NBP7 31-152 partner limits assumed): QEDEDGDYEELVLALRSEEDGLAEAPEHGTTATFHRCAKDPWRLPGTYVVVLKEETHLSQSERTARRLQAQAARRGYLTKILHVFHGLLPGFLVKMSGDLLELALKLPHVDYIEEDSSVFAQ
T1 sequence (Q8NBP7 with tags, fused parts or gaps limits assumed): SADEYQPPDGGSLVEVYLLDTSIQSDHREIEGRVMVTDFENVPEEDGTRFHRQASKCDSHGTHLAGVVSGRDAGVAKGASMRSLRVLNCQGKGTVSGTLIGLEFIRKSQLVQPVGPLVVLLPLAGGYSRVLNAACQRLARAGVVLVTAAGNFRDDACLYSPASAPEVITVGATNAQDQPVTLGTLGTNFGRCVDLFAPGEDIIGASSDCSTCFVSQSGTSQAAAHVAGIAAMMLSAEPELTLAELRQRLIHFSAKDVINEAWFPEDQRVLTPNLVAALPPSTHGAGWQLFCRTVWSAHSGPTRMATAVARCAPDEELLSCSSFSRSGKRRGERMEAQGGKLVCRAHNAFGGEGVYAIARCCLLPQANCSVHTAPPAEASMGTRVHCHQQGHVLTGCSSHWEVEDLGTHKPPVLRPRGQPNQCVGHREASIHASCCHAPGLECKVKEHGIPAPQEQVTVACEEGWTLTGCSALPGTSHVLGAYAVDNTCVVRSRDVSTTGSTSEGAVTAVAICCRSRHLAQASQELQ
T1 sequence (Q8NBP7 31-152 partner limits assumed): as the sequence (Q8NBP7 31-152 partner limits assumed) above

On to `CC[C@H](C)[C@@H]1NC(=O)[C@H](CCCNC(=N)N)NC(=O)[C@H](CCC(N)=O)NC(=O)[C@H](CC(C)C)NC(=O)[C@H](CC(N)=O)NC(=O)[C@H](Cc2c[nH]c3ccccc23)NC(=O)[C@@H]2CCCN2C(=O)[C@H](CC(C)C)NC(=O)[C@H](CCCNC(=N)N)NC(=O)[C@@H](NC(C)=O)CSSC[C@@H](C(N)=O)NC(=O)CNC(=O)CNC(=O)CNC1=O` [Compound 81] (Ac-CRLPWNLQRIGGGC-NH2; disulfide 1-14), for which the IC50 is greater than 50 µM in test [1] (setting [4]), 28.8 µM in test [2] (setting [4]) and greater than 50 µM in test [3] (setting [5]).

With Ac-DLMPWNLVRIGLLA-NH2 [Compound 54], the IC50 in test [1] (Example 7) is greater than 50 µM; in test [2] (Example 7) it was 15.4 µM; in test [3] (counterscreen, Example 7) it was greater than 50 µM.

Regarding `CC[C@H](C)[C@@H]1NC(=O)[C@H](CCCNC(=N)N)NC(=O)[C@H](CCC(N)=O)NC(=O)[C@H](CC(C)C)NC(=O)[C@H](CC(N)=O)NC(=O)[C@H](Cc2c[nH]c3ccccc23)NC(=O)[C@@H]2CCCN2C(=O)[C@H](CC(C)C)NC(=O)[C@H](CCCNC(=N)N)NC(=O)[C@H](NC(C)=O)CSSC[C@@H](C(N)=O)NC(=O)[C@@H]2CCCN2C(=O)[C@H](CC(C)C)NC(=O)CNC1=O` [Compound 110] (Ac-[dC]RLPWNLQRIGLPC-NH2; disulfide 1-14), the IC50 in test [1] (setting [4]) and in test [3] (setting [5]) was greater than 50 µM throughout.

Regarding Ac-PWNLVRIGL-NH2 [Compound 119], the IC50 is greater than 50 µM in test [1] (Example 7); no less than 49.5 µM in test [2] (Example 7); greater than 50 µM in test [3] (counterscreen, Example 7).

Take Ac-DSYPGWNLVRIGLLR-NH2 [Compound 155]: the IC50 in test [1] (Table 8E, additional compounds) is 11 µM; in test [3] (setting [6]) it was greater than 50 µM.

In the case of `CC[C@H](C)[C@@H]1NC(=O)[C@H](CCCNC(=N)N)NC(=O)[C@H](CCC(N)=O)NC(=O)[C@H](CC(C)C)NC(=O)[C@H](CC(N)=O)NC(=O)[C@H](Cc2c[nH]c3ccccc23)NC(=O)[C@@H]2CCCN2C(=O)[C@H](CC(C)C)NC(=O)[C@H](CCCNC(=N)N)NC(=O)[C@@H](NC(C)=O)CSSC[C@@H](C(N)=O)NC(=O)CNC(=O)[C@H](CC(C)C)NC(=O)CNC1=O` [Compound 80] (Ac-CRLPWNLQRIGLGC-NH2; disulfide 1-14), the IC50 in test [1] (setting [4]) and in test [3] (setting [5]) was greater than 50 µM each time.

On to `CC[C@H](C)[C@H](NC(=O)[C@H](CCCCNC(=N)N)NC(=O)[C@H](CCCCN)NC(=O)[C@H](CC(C)C)NC(=O)[C@H](CC(N)=O)NC(=O)[C@H](Cc1c[nH]c2ccccc12)NC(=O)CNC(=O)[C@@H]1CCCN1C(=O)[C@H](Cc1ccccc1)NC(=O)[C@H](CO)NC(=O)[C@H](CCC(=O)O)NC(=O)[C@H](CCSC)NC(C)=O)C(=O)NCC(=O)N[C@@H](CC(C)C)C(=O)N[C@@H](CC(C)C)C(=O)N[C@@H](CCCNC(=N)N)C(N)=O` [Compound 233] (Ac-MESFPGWNLK[hArg]IGLLR-NH2), for which the IC50 in test [1] (Table 8E, additional compounds) is 3.1 µM; in test [3] (setting [6]), no less than 50 µM.

Consider `CC[C@H](C)[C@@H]1NC(=O)[C@H](CCCNC(=N)N)NC(=O)CNC(=O)[C@H](CC(C)C)NC(=O)[C@H](CC(N)=O)NC(=O)[C@H](Cc2c[nH]c3ccccc23)NC(=O)[C@@H](NC(=O)CNC(=O)[C@H](CO)NC(=O)CNC(=O)[C@@H](NC(=O)[C@H](Cc2c[nH]c3ccccc23)NC(=O)[C@H](CC(=O)O)NC(=O)[C@H](CC(C)C)NC(=O)[C@H](Cc2ccc(O)cc2)NC(=O)[C@H](CCC(=O)O)NC(=O)[C@H](CCC(=O)O)NC(=O)[C@H](Cc2c[nH]c3ccccc23)NC(=O)[C@H](CO)NC(=O)[C@@H](NC(=O)[C@H](Cc2ccccc2)NC(=O)[C@@H](NC(=O)[C@@H](NC(C)=O)[C@@H](C)O)C(C)C)[C@@H](C)O)C(C)C)CSSC[C@@H](C(N)=O)NC(=O)CNC(=O)[C@H](CCC(N)=O)NC(=O)[C@H](CO)NC(=O)CNC1=O` [Compound 11] (Ac-TVFTSWEEYLDWVGSGCWNLGRIGSQGC-NH2; disulfide 17-28), for which the IC50 was 0.34 µM in test [1] (Example 7) and greater than 50 µM in test [3] (counterscreen, Example 7).

With Ac-ESYPGWNLVRIGLLR-NH2 [Compound 156], the IC50 in test [1] (Table 8E, additional compounds) was 11 µM; in test [3] (setting [6]) it was greater than 50 µM.

With `CC(=O)N[C@H](C(=O)N[C@H](C(=O)N[C@@H](Cc1ccccc1)C(=O)N[C@H](C(=O)N[C@@H](CO)C(=O)N[C@@H](Cc1c[nH]c2ccccc12)C(=O)N[C@@H](CCC(=O)O)C(=O)N[C@@H](CCC(=O)O)C(=O)N[C@@H](Cc1ccc(O)cc1)C(=O)N[C@@H](CC(C)C)C(=O)N[C@@H](CC(=O)O)C(=O)N[C@@H](Cc1c[nH]c2ccccc12)C(=O)N[C@H](C(=O)NCCCCCC(=O)N[C@@H](C)C(=O)N[C@@H](Cc1c[nH]c2ccccc12)C(=O)N[C@@H](CC(N)=O)C(=O)N[C@@H](CC(C)C)C(=O)N[C@@H](CCCCN)C(=O)N[C@@H](CCCNC(=N)N)C(N)=O)C(C)C)[C@@H](C)O)C(C)C)[C@@H](C)O` [Compound 94], the IC50 is 1.41 µM in test [2] (Example 7) and greater than 50 µM in test [3] (counterscreen, Example 7).

With `CC[C@H](C)[C@@H]1NC(=O)[C@H](CCCNC(=N)N)NC(=O)[C@H](CCC(N)=O)NC(=O)[C@H](CC(C)C)NC(=O)[C@H](CC(N)=O)NC(=O)[C@H](Cc2c[nH]c3ccccc23)NC(=O)[C@@H]2CCCN2C(=O)[C@H](CC(C)C)NC(=O)[C@H](CCCNC(=N)N)NC(=O)[C@@H](NC(=O)CNC(=O)CNC(=O)[C@H](CO)NC(=O)CNC(=O)[C@@H](NC(=O)[C@H](Cc2c[nH]c3ccccc23)NC(=O)[C@H](CC(=O)O)NC(=O)[C@H](CC(C)C)NC(=O)[C@H](Cc2ccc(O)cc2)NC(=O)[C@H](CCC(=O)O)NC(=O)[C@H](CCC(=O)O)NC(=O)[C@H](Cc2c[nH]c3ccccc23)NC(=O)[C@H](CO)NC(=O)[C@@H](NC(=O)[C@H](Cc2ccccc2)NC(=O)[C@@H](NC(=O)[C@@H](NC(C)=O)[C@@H](C)O)C(C)C)[C@@H](C)O)C(C)C)CSSC[C@@H](C(N)=O)NC(=O)[C@@H]2CCCN2C(=O)[C@H](CC(C)C)NC(=O)CNC1=O` [Compound 25] (Ac-TVFTSWEEYLDWVGSGGCRLPWNLQRIGLPC-NH2; disulfide 18-31), the “inhibition in the PCSK9Δhelix/Ab20 binding assay” value in test [2] is “potent inhibitors”. The IC50 in test [2] (Example 7) is 0.083 µM; in test [3] (counterscreen, Example 7) it was greater than 50 µM.

Consider `CCCCC(=O)N[C@@H](Cc1c[nH]c2ccccc12)C(=O)N[C@@H](CC(N)=O)C(=O)N[C@@H](CC(C)C)C(=O)N[C@H](C(=O)N[C@@H](CCCNC(=N)N)C(=O)N[C@H](C(=O)NCC(=O)N[C@@H](CC(C)C)C(=O)N[C@@H](CCC(=O)O)C(=O)N[C@@H](CCCNC(=N)N)C(N)=O)[C@@H](C)CC)C(C)C` [Compound 177] (Pentanoyl-WNLVRIGLER-NH2), for which the IC50 is no less than 50 µM in test [1] (Table 8E, additional compounds) and no less than 50 µM in test [3] (setting [6]).

Consider `CC(=O)N[C@H](C(=O)N[C@H](C(=O)N[C@@H](Cc1ccccc1)C(=O)N[C@H](C(=O)N[C@@H](CO)C(=O)N[C@@H](Cc1c[nH]c2ccccc12)C(=O)N[C@@H](CCC(=O)O)C(=O)N[C@@H](CCC(=O)O)C(=O)N[C@@H](Cc1ccc(O)cc1)C(=O)N[C@@H](CC(C)C)C(=O)N[C@@H](CC(=O)O)C(=O)N[C@@H](Cc1c[nH]c2ccccc12)C(=O)N[C@H](C(=O)NCCCCCCC(=O)N[C@@H](CCCCN)C(=O)N[C@@H](CC(C)C)C(=O)N[C@@H](Cc1c[nH]c2ccccc12)C(=O)N[C@@H](CC(N)=O)C(=O)N[C@@H](CC(C)C)C(=O)NCC(=O)N[C@@H](CCCNC(=N)N)C(=O)N[C@H](C(N)=O)C(C)C)C(C)C)[C@@H](C)O)C(C)C)[C@@H](C)O` [Compound 16], for which the IC50 is 0.028 µM in test [2] (Example 7) and greater than 50 µM in test [3] (counterscreen, Example 7).

In the case of “Ac-TVFTSWEEYLDWVGSGKLWNL-NH2 [Compound 6]”, the IC50 is 10 µM in test [2] (Example 7) and greater than 50 µM in test [3] (counterscreen, Example 7).

Consider Ac-SFAFPGWNLVRIGLLR-NH2 [Compound 154], for which the IC50 was 11 µM in test [1] (Table 8E, additional compounds) and greater than 50 µM in test [3] (setting [6]).

Consider “Ac-TVFTSWEEYLDWVGGSGKLWNLGRV-NH2 [Compound 8]”, for which the IC50 is 0.049 µM in test [2] (Example 7) and greater than 50 µM in test [3] (counterscreen, Example 7).

Consider `CC[C@H](C)[C@@H]1NC(=O)[C@H](CCCNC(=N)N)NC(=O)[C@H](CCCCN)NC(=O)[C@H](CC(C)C)NC(=O)[C@H](CC(N)=O)NC(=O)[C@H](Cc2c[nH]c3ccccc23)NC(=O)[C@H](CC(C)C)NC(=O)[C@@H](NC(=O)[C@H](CCSC)NC(C)=O)CSSC[C@@H](C(=O)N[C@@H](CCC(=O)O)C(=O)N[C@@H](Cc2ccc(O)cc2)C(N)=O)NC(=O)[C@H](CCC(N)=O)NC(=O)[C@H](CO)NC(=O)CNC1=O` [Compound 63] (Ac-MCLWNLKRIGSQCEY-NH2; disulfide 2-13), for which the “inhibition in the PCSK9Δhelix/Ab20 binding assay” value in test [2] was “low micromolar range”. Also, the IC50 in test [2] (setting [4]) amounted to 6 µM; in test [3] (setting [5]), 41 µM.

Turning to `CC[C@H](C)[C@H](NC(=O)[C@H](CCCNC(=N)N)NC(=O)[C@H](CCCCN)NC(=O)[C@H](CC(C)C)NC(=O)[C@H](CC(N)=O)NC(=O)[C@H](Cc1c[nH]c2ccccc12)NC(=O)[C@H](C)NC(=O)CCCCCNC(=O)[C@@H](NC(=O)[C@H](Cc1c[nH]c2ccccc12)NC(=O)[C@H](CC(=O)O)NC(=O)[C@H](CC(C)C)NC(=O)[C@H](Cc1ccc(O)cc1)NC(=O)[C@H](CCC(=O)O)NC(=O)[C@H](CCC(=O)O)NC(=O)[C@H](Cc1c[nH]c2ccccc12)NC(=O)[C@H](CO)NC(=O)[C@@H](NC(=O)[C@H](Cc1ccccc1)NC(=O)[C@@H](NC(=O)[C@@H](NC(C)=O)[C@@H](C)O)C(C)C)[C@@H](C)O)C(C)C)C(=O)NCC(N)=O` [Compound 92], the IC50 in test [2] (Example 7) is 0.013 µM; in test [3] (counterscreen, Example 7), greater than 50 µM.

In the case of Ac-MDSFPGWNLVRIGLLR-NH2 [Compound 153], the IC50 was 12 µM in test [1] (Table 8E, additional compounds) and greater than 50 µM in test [3] (setting [6]).

The record behind these values is US11034725B2, “Compositions and methods for treating cardiovascular disease” (Genentech, Inc., priority 2016, dated 2021).
